In article PMC12292521, “Discovery of a Potent Antimicrobial Peptide Through Rational Design: A New Frontier in Pathogen Control” (Biomolecules, 2025):
≈ marks a conversion by molar mass, not a printed value. Peptide text beside a SMILES is read from it.

Legend:
[1] = Conformational stability by CD and fluorescence spectroscopy in SDS; type: physicochemical
Method: The secondary structure elements of the antimicrobial molecule were analyzed in a 0.1 cm optical path-length quartz cuvette (Hellma Analytics, Milan, Italy) using Jasco J-810 Circular Dichroism Spectropolarimeter (JASCO, Tokyo, Japan). All spectra were recorded at 25 °C in a wavelength range of 190–250 nm with a 1 nm bandwidth, a scanning speed of 20 nm/min, and averaged over five scans. The spectra as a function of SDS concentration (3, 50, and 150 mM) were obtained at 50 μM final concentration of peptide in 10 mM Tris-HCl buffer, pH 7.0. The folding kinetic analysis of the peptide was carried out after the addition of SDS (50 mM) to the sample (50 μM in 10 mM Tris-HCl, pH 7.0), up to 24 h incubation. […] Next, 50 mM of SDS was added to each sample, which was analyzed by CD spectroscopy after 48 h of incubation at 25 °C. […] All CD spectra of RKW were corrected by subtracting a blank spectrum of a sample containing all components except the peptide (baseline correction). The mean residue ellipticity ([θ], deg. cm^2 dmol^−1) was obtained by the equation [θ] = 100 θ/cnl, where θ is the ellipticity (mdeg), c is the peptide concentration (mM), n is the number of residues, and l is the path length (cm).
Fluorescence experiments were conducted in a Shimadzu RF-6000 spectrofluorometer (Kyoto, Japan). The analyses were performed by setting an excitation and emission slit width of 5 nm and using a quartz cell with a path length of 1 cm. The intrinsic tryptophan residues were excited at a wavelength of 280 nm, following the emission between 300 and 400 nm. The effects of SDS on the peptide folding, the folding kinetics, and the thermal and the pH stability were monitored as described in Section 2.2.

[2] = tested on: Monophasic Salmonella Typhimurium; type: cell-based, monophasic variant of Salmonella Typhimurium; settings: Monophasic murium, 6 h
Method: (§1) To assess the antimicrobial potential of the designed peptide, different strains of Gram-negative and Gram-positive bacteria were evaluated. Pseudomonas aeruginosa was an ATCC (27853) strain, while Escherichia coli, Listeria monocytogenes, Staphylococcus aureus, Campylobacter jejuni, Salmonella Typhimurium, the monophasic variant of Salmonella Typhimurium and Salmonella Napoli were isolated from food products by the Laboratory of Microbiological Food Control—Department of Food Microbiology of the Istituto Zooprofilattico Sperimentale del Mezzogiorno (IZSM) in Portici (Naples, Italy).
(§2) In accordance with the Clinical & Laboratory Standards Institute guidelines (CLSI, 2015), the Minimum Bactericidal Concentration (MBC), defined as the minimum concentration of peptide required to kill 99.9% of the tested bacterial suspension within a defined time interval, was determined. L. monocytogenes, E. coli, S. aureus, S. Typhimurium, monophasic variant of S. Typhimurium, S. Napoli, and P. aeruginosa were cultured at 37 °C in buffered peptone water (Thermo Fisher, Milan, Italy), while C. jejuni was cultured in Bolton Broth (Oxoid, Madrid, Spain). The bacterial suspension was collected and then diluted in fresh broth to a final concentration of 1.0 × 10^3 or 1.0 × 10^5 colony-forming units (CFUs)/mL. […] Samples containing only cell suspension and DMSO were used as controls. […]

[3] = tested on: Salmonella Napoli; type: cell-based; settings: 6 h
Method: as §1, §2

[4] = tested on: Campylobacter jejuni; type: cell-based; settings: 6 h
Method: as §1, §2

CC[C@H](C)[C@H](NC(=O)[C@H](Cc1c[nH]c2ccccc12)NC(=O)[C@H](CCCCN)NC(=O)[C@@H](N)CCCNC(=N)N)C(=O)N[C@@H](CC(C)C)C(=O)N[C@@H](CCCCN)C(=O)N[C@@H](Cc1c[nH]c2ccccc12)C(=O)N[C@@H](CC(C)C)C(=O)N[C@@H](CCCNC(=N)N)C(=O)N[C@H](C(=O)N[C@@H](Cc1c[nH]c2ccccc12)C(=O)N[C@@H](CCCCN)C(=O)N[C@@H](CCCCN)C(N)=O)[C@@H](C)O [RKW] (H-RKWILKWLRTWKK-NH2; N-terminus assumed)
α-helical conformation over time in SDS ([1]; 50 μM peptide, 10 mM Tris-HCl pH 7.0, 50 mM SDS, 25 °C, up to 24 h, CD and fluorescence): did not markedly change its α-helical conformation
Helical content at extreme acidic pH ([1]; 50 μM peptide, 10 mM glycine-HCl pH 2.0, 50 mM SDS, 48 h at 25 °C, CD): entirely disordered
Structural and folding stability in SDS micellar solution under other pH and temperature conditions ([1]; 50 μM peptide, 50 mM SDS, pH 7.0 and 11.0 at 25 °C, 4, 37 and 90 °C at pH 7.0, 48 h, CD and fluorescence): not markedly affected
Time the α-helical conformation remains stable in a wide range of pH and temperature ([1]; membrane-like environment (SDS), abstract): at least 48 h
MBC [2]: 20 µM (≈ 36.8 µg/mL)
MBC [3]: 20 µM (≈ 36.8 µg/mL)
MBC [4]: 80 µM (≈ 147 µg/mL)
